Assay results from PubChem BioAssay AID2060912 (Molecular Pharmacology Branch, DTP, NCI, 2025).

Test system: HUVEC/MSC spheroids viability
Test: Human HUVEC/MSC cell line growth inhibition [KRAS2];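 on viability, T/C: percent of DMSO vehicle control luminescence so 100% = untreated viability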
Details: for IC50: curve of first compound; for viability, T/C: stronger effect = lower value
Outline: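 The concentration series started at or near clinical Cmax (10 microM if not known) and fell in half-log increments, alone or in combination. Cells were stromal-only spheroids of pooled-donor HUVEC and hMSC (passage </=5), with different drug plates and layout from the tumor spheroid screens.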

[1] = second compound 0.0316 µM, first compound 0.0316 µM
[2] = second compound 0.0316 µM, first compound 0.1 µM
[3] = second compound 0.0316 µM, first compound 0.316 µM
[4] = second compound 0.0316 µM, first compound 1 µM
[5] = second compound 0.0316 µM, first compound 3.16 µM
[6] = second compound 0.0316 µM, first compound 10 µM
[7] = second compound 0.1 µM, first compound 0.0316 µM
[8] = second compound 0.1 µM, first compound 0.1 µM
[9] = second compound 0.1 µM, first compound 0.316 µM
[10] = second compound 0.1 µM, first compound 1 µM
[11] = second compound 0.1 µM, first compound 3.16 µM
[12] = second compound 0.1 µM, first compound 10 µM
[13] = second compound 0.316 µM, first compound 0.0316 µM
[14] = second compound 0.316 µM, first compound 0.1 µM
[15] = second compound 0.316 µM, first compound 0.316 µM
[16] = second compound 0.316 µM, first compound 1 µM
[17] = second compound 0.316 µM, first compound 3.16 µM
[18] = second compound 0.316 µM, first compound 10 µM
[19] = second compound 1 µM, first compound 0.0316 µM
[20] = second compound 1 µM, first compound 0.1 µM
[21] = second compound 1 µM, first compound 0.316 µM
[22] = second compound 1 µM, first compound 1 µM
[23] = second compound 1 µM, first compound 3.16 µM
[24] = second compound 1 µM, first compound 10 µM
[25] = second compound 3.16 µM, first compound 0.0316 µM
[26] = second compound 3.16 µM, first compound 0.1 µM
[27] = second compound 3.16 µM, first compound 0.316 µM
[28] = second compound 3.16 µM, first compound 1 µM
[29] = second compound 3.16 µM, first compound 3.16 µM
[30] = second compound 3.16 µM, first compound 10 µM
[31] = second compound 10 µM, first compound 0.0316 µM
[32] = second compound 10 µM, first compound 0.1 µM
[33] = second compound 10 µM, first compound 0.316 µM
[34] = second compound 10 µM, first compound 1 µM
[35] = second compound 10 µM, first compound 3.16 µM
[36] = second compound 10 µM, first compound 10 µM

`CC(C)NCC(C(=O)N1CCN(c2ncnc3c2C(C)CC3O)CC1)c1ccc(Cl)cc1` (stereo not drawn) + C=CC(=O)N1CCN(c2nc(OCC3CCCN3C)nc3c2CCN(c2cccc4cccc(C)c24)C3)CC1CC#N showed an IC50 (second compound 0.00949 µM) greater than 10 µM, an IC50 (second compound 0.03 µM) greater than 10 µM and an IC50 (second compound 0.0949 µM) greater than 10 µM. The IC50 (second compound 0.3 µM) was 6.17 µM, the IC50 (second compound 0.949 µM) was greater than 10 µM and the IC50 (second compound 3 µM) was greater than 10 µM. For the same compound, the viability, T/C (second compound 0.00949 µM, first compound 0.0316 µM) was 102%, the viability, T/C (second compound 0.00949 µM, first compound 0.1 µM) was 92.3% and the viability, T/C (second compound 0.00949 µM, first compound 0.316 µM) was 98.8%. The viability, T/C (second compound 0.00949 µM, first compound 1 µM) was 66.7%, the viability, T/C (second compound 0.00949 µM, first compound 3.16 µM) was 67.7% and the viability, T/C (second compound 0.00949 µM, first compound 10 µM) was 57.2%. For the same compound, the viability, T/C (second compound 0.03 µM, first compound 0.0316 µM) was 85.8%, the viability, T/C (second compound 0.03 µM, first compound 0.1 µM) was 91.8% and the viability, T/C (second compound 0.03 µM, first compound 0.316 µM) was 94.8%. The viability, T/C (second compound 0.03 µM, first compound 1 µM) was 61.3%, the viability, T/C (second compound 0.03 µM, first compound 3.16 µM) was 65.4% and the viability, T/C (second compound 0.03 µM, first compound 10 µM) was 46.1%. The viability, T/C (second compound 0.0949 µM, first compound 0.0316 µM) was 95.4%, the viability, T/C (second compound 0.0949 µM, first compound 0.1 µM) was 97.5% and the viability, T/C (second compound 0.0949 µM, first compound 0.316 µM) was 78.2%. It also gave a viability, T/C (second compound 0.0949 µM, first compound 1 µM) of 79.8%, a viability, T/C (second compound 0.0949 µM, first compound 3.16 µM) of 53.4% and a viability, T/C (second compound 0.0949 µM, first compound 10 µM) of 57.4%. It also gave a viability, T/C (second compound 0.3 µM, first compound 0.0316 µM) of 77.7%, a viability, T/C (second compound 0.3 µM, first compound 0.1 µM) of 84.8% and a viability, T/C (second compound 0.3 µM, first compound 0.316 µM) of 84%. The viability, T/C (second compound 0.3 µM, first compound 1 µM) was 71.8%, the viability, T/C (second compound 0.3 µM, first compound 3.16 µM) was 56.4% and the viability, T/C (second compound 0.3 µM, first compound 10 µM) was 45.6%. The viability, T/C (second compound 0.949 µM, first compound 0.0316 µM) was 67.4%, the viability, T/C (second compound 0.949 µM, first compound 0.1 µM) was 82.2% and the viability, T/C (second compound 0.949 µM, first compound 0.316 µM) was 68.6%. For the same compound, the viability, T/C (second compound 0.949 µM, first compound 1 µM) was 58%, the viability, T/C (second compound 0.949 µM, first compound 3.16 µM) was 57.8% and the viability, T/C (second compound 0.949 µM, first compound 10 µM) was 56%. It also gave a viability, T/C (second compound 3 µM, first compound 0.0316 µM) of 83.4%, a viability, T/C (second compound 3 µM, first compound 0.1 µM) of 74.5% and a viability, T/C (second compound 3 µM, first compound 0.316 µM) of 81.2%. It also gave a viability, T/C (second compound 3 µM, first compound 1 µM) of 68.5%, a viability, T/C (second compound 3 µM, first compound 3.16 µM) of 49.3% and a viability, T/C (second compound 3 µM, first compound 10 µM) of 51.9%.

`COc1cc(Nc2ncc3c(n2)-c2ccc(Cl)cc2C(c2c(F)cccc2OC)=NC3)ccc1C(=O)O` + CNCc1ccccc1-c1csc(C(C)Nc2nc(C)nc3cc(OC)c(OC)cc23)c1 was tested, and the IC50 (second compound 0.0316 µM) was 9.93 µM, the IC50 (second compound 0.1 µM) was greater than 10 µM and the IC50 (second compound 0.316 µM) was 8.79 µM. The IC50 (second compound 1 µM) was 9.31 µM, the IC50 (second compound 3.16 µM) was greater than 10 µM and the IC50 (second compound 10 µM) was less than 0.0316 µM. For the same compound, the viability, T/C [1] was 92.9%, the viability, T/C [2] was 104% and the viability, T/C [3] was 101%. The viability, T/C [4] was 87.3%, the viability, T/C [5] was 84.6% and the viability, T/C [6] was 49.2%. It also gave a viability, T/C [7] of 93.2%, a viability, T/C [8] of 80.8% and a viability, T/C [9] of 98%. It also gave a viability, T/C [10] of 80.3%, a viability, T/C [11] of 84% and a viability, T/C [12] of 56.7%. The viability, T/C [13] was 71.1%, the viability, T/C [14] was 90.8% and the viability, T/C [15] was 79.5%. It also gave a viability, T/C [16] of 73.3%, a viability, T/C [17] of 83.7% and a viability, T/C [18] of 46.3%. It also gave a viability, T/C [19] of 75.5%, a viability, T/C [20] of 76.6% and a viability, T/C [21] of 97.3%. The viability, T/C [22] was 74.5%, the viability, T/C [23] was 92.4% and the viability, T/C [24] was 47.8%. The viability, T/C [25] was 101%, the viability, T/C [26] was 106% and the viability, T/C [27] was 97.8%. For the same compound, the viability, T/C [28] was 90.4%, the viability, T/C [29] was 100% and the viability, T/C [30] was 50.7%. For the same compound, the viability, T/C [31] was 0.4%, the viability, T/C [32] was 0.4% and the viability, T/C [33] was 0.37%. For the same compound, the viability, T/C [34] was 0.36%, the viability, T/C [35] was 0.41% and the viability, T/C [36] was 0.32%.

Work on `CC1(C)CCC(CN2CCN(c3ccc(C(=O)NS(=O)(=O)c4ccc(NCC5CCOCC5)c([N+](=O)[O-])c4)c(Oc4cnc5[nH]ccc5c4)c3)CC2)=C(c2ccc(Cl)cc2)C1` + CC1OCC2(CCN(c3cnc(Sc4ccnc(N)c4Cl)c(N)n3)CC2)C1N yielded an IC50 (second compound 0.0316 µM) of 5.15 µM, an IC50 (second compound 0.1 µM) of 4.69 µM and an IC50 (second compound 0.316 µM) of 4.77 µM. It also gave an IC50 (second compound 1 µM) of 4.47 µM, an IC50 (second compound 3.16 µM) of 3.51 µM and an IC50 (second compound 10 µM) of 2.23 µM. It also gave a viability, T/C [1] of 99.2%, a viability, T/C [2] of 116% and a viability, T/C [3] of 109%. For the same compound, the viability, T/C [4] was 108%, the viability, T/C [5] was 83.8% and the viability, T/C [6] was 4.11%. The viability, T/C [7] was 116%, the viability, T/C [8] was 110% and the viability, T/C [9] was 102%. The viability, T/C [10] was 94.9%, the viability, T/C [11] was 78.6% and the viability, T/C [12] was 1.56%. For the same compound, the viability, T/C [13] was 91.5%, the viability, T/C [14] was 124% and the viability, T/C [15] was 122%. The viability, T/C [16] was 110%, the viability, T/C [17] was 75.6% and the viability, T/C [18] was 3.8%. For the same compound, the viability, T/C [19] was 91%, the viability, T/C [20] was 95% and the viability, T/C [21] was 102%. For the same compound, the viability, T/C [22] was 92.3%, the viability, T/C [23] was 71.6% and the viability, T/C [24] was 0.34%. The viability, T/C [25] was 93.2%, the viability, T/C [26] was 91.9% and the viability, T/C [27] was 93%. It also gave a viability, T/C [28] of 66.1%, a viability, T/C [29] of 61.3% and a viability, T/C [30] of 0.92%. The viability, T/C [31] was 76%, the viability, T/C [32] was 76.2% and the viability, T/C [33] was 85.1%. The viability, T/C [34] was 69.8%, the viability, T/C [35] was 40.9% and the viability, T/C [36] was 0.29%.

With `CCN1CCN(Cc2ccc(Nc3ncc(F)c(-c4cc(F)c5nc(C)n(C(C)C)c5c4)n3)nc2)CC1` + C=CC(=O)N1CCN(c2nc(=O)n(-c3c(C)ccnc3C(C)C)c3nc(-c4c(O)cccc4F)c(F)cc23)C(C)C1 the IC50 (second compound 0.0316 µM) was greater than 1 µM, the IC50 (second compound 0.1 µM) was greater than 1 µM and the IC50 (second compound 0.316 µM) was greater than 1 µM. The IC50 (second compound 1 µM) was greater than 1 µM, the IC50 (second compound 3.16 µM) was greater than 1 µM and the IC50 (second compound 10 µM) was greater than 1 µM. The viability, T/C (second compound 0.0316 µM, first compound 0.00316 µM) was 76%, the viability, T/C (second compound 0.0316 µM, first compound 0.01 µM) was 95.8% and the viability, T/C [1] was 93.7%. For the same compound, the viability, T/C [2] was 86.6%, the viability, T/C [3] was 129% and the viability, T/C [4] was 107%. For the same compound, the viability, T/C (second compound 0.1 µM, first compound 0.00316 µM) was 96.8%, the viability, T/C (second compound 0.1 µM, first compound 0.01 µM) was 102% and the viability, T/C [7] was 85.1%. The viability, T/C [8] was 82.9%, the viability, T/C [9] was 129% and the viability, T/C [10] was 116%. It also gave a viability, T/C (second compound 0.316 µM, first compound 0.00316 µM) of 113%, a viability, T/C (second compound 0.316 µM, first compound 0.01 µM) of 106% and a viability, T/C [13] of 98%. For the same compound, the viability, T/C [14] was 87.2%, the viability, T/C [15] was 112% and the viability, T/C [16] was 123%. It also gave a viability, T/C (second compound 1 µM, first compound 0.00316 µM) of 118%, a viability, T/C (second compound 1 µM, first compound 0.01 µM) of 109% and a viability, T/C [19] of 109%. For the same compound, the viability, T/C [20] was 119%, the viability, T/C [21] was 119% and the viability, T/C [22] was 133%. It also gave a viability, T/C (second compound 3.16 µM, first compound 0.00316 µM) of 127%, a viability, T/C (second compound 3.16 µM, first compound 0.01 µM) of 111% and a viability, T/C [25] of 132%. For the same compound, the viability, T/C [26] was 121%, the viability, T/C [27] was 138% and the viability, T/C [28] was 162%. The viability, T/C (second compound 10 µM, first compound 0.00316 µM) was 149%, the viability, T/C (second compound 10 µM, first compound 0.01 µM) was 154% and the viability, T/C [31] was 130%. It also gave a viability, T/C [32] of 134%, a viability, T/C [33] of 118% and a viability, T/C [34] of 162%.
